The values that follow come from patent US5053431A, “Derivatives of chrysophanol as topoisomerase II inhibitors” (Sloan-Kettering Institute For Cancer Research, priority 1990, dated 1991).

Each structure is given as a SMILES string. pIC50: −log10 of the molar value. Values after ≈ are worked out from the molar mass of the structure shown. Like-named read-outs stand apart in the source and are kept apart here.

For assay [1], the system named is mouse leukemia L1210 cells. Nature of the assay: Inhibition of L1210 cell growth. The note with it: Table I; for pIC50: read-out: ID50 (the source's name). Type of assay: cell-based. Summed up:
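Murine L1210 leukemia cells were exposed to compounds for 72 h, and growth inhibition was measured.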

Assay [2] deals with human leukemia HL-60 cells. The experiment in a line: HL-60 cell growth inhibition (72 h). The assay is classed as cell-based. The note with it: HL-60, 72 h, 0.2% DMSO, read-out: ID50, M [HL-60 cell growth (72 h)] (A). An outline of the steps: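 HL-60 cells grown in RPMI 1640 at 37° C., 5% CO2 for 72 h with four or five compound concentrations in 0.2% DMSO. Viable cells counted by trypan blue exclusion; ID50 taken as x intercept of median-effect plot of fractional inhibition versus DMSO control.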

Assay [3] has as its system [^3 H]TdR incorporation into DNA in HL-60 cells. Nature of the assay: Inhibition of [3H]TdR incorporation into DNA in HL-60 cells (initial 30 min). Type of assay: cell-based, human. The note with it: for pIC50: HL-60, initial 30 min exposure, read-out: ID50, M (HL-60 TdR into DNA (B)); for B/A: ratio of ID50 for TdR incorporation (B) to ID50 for cell growth (A), HL-60. The method, then: For precursor incorporation studies, each compound at four to six concentrations (0.2% DMSO) was preincubated with HL-60 cells (2.5×10^6 /Ml) for 15 min prior to the addition of [^3 H-methyl]TdR (1 μCi, 0.15 nmol/mL) and was incubated for 30 min. […] The incorporation of radioactivity in DNA in the absence of an analogue in the presence of DMSO was used as a control.

The next assay concerns leukemic cells. Nature of the assay: Antileukemic activity (Experiment 3). Type of assay: cell-based. The note with it: read-out: antileukemic activity IC>es.
The test system of assay [4] is Topo II. The experiment in a line: Inhibition of kDNA decatenation. Type of assay: biochemical.
In assay [5] the test system is Topo II. The experiment in a line: Mapping of DNA-Topo II cleavage sites (Hind III-digested 3'-labeled DNA, HL-60 nuclear extracts). Type of assay: biochemical, human (HL-60). The note with it: 10 uM. On the procedure:
(§1) This experiment concerns Topoisomerase II (Topo II)-mediated DNA cleavage activity induced by chrysophanol derivatives. 3-(bis[2-chloroethyl]amino)methyl-1,8-dihydroxy-9,10-anthraquinone (SK-31662) and 3-(2-hydroxyethylamino)methyl-1,8-dihydroxy-9,10-anthraquinone (SK-31694) have antileukemic activity with IC>es of 0.14 and 0.86 uM, respectively. SK-31662 and SK-31694 inhibit kDNA decatenation at 48 and 38 uM, respectively.

The test system of assay [6] is Topo II. Nature of the assay: Topo II cleavable complex formation. The assay is classed as biochemical, human (HL-60). The note with it: 3'-labeled DNA and NE of HL-60. The method, then: as §1
Assay [7] relates to Topo II. The experiment in a line: Heat reversal of protein-linked DNA complex. The assay is classed as biochemical, human (HL-60). The note with it: 65 degrees C. On the procedure:
as §1

Assay [8] deals with proteins, polyadenylate, RNA, DNA. The note with it: literature; cited from earlier work.
The next assay deals with cancer. The note with it: literature; cited from earlier work.
Another assay concerns peroxidases. The note with it: literature; cited from earlier work.
In the next assay the test system is DNA. The note with it: literature; cited from earlier work.
A further assay relates to leukemia L1210/Cisplatin. The experiment in a line: Activity against Cisplatin-resistant leukemia L1210 in mice. The assay is classed as in vivo, mouse. The method, then: At the dosage of 100 mg/kg/day×5 (ip), mice inoculated with Cisplatin resistant leukemia L1210/Cisplatin are cured.

In the case of `O=C1c2cccc(O)c2C(=O)c2c(O)cc(CNCCO)cc21` [XIa-6, 3-(2-hydroxyethylamino)methyl-1,8-dihydroxy-9,10-anthraquinone], the pIC50 in [1] (Mus musculus, L1210) is 6.80; in assay [2] (Homo sapiens) it was 6.07; in assay [3] (Homo sapiens, 0.5 h), 4.82; in the assay on leukemic cells, 6.07. The IC50 in [1] (Mus musculus, L1210, read-out: ID50 (μg/mL)) is 0.066 µg/mL. Further, the B/A in [3] came to 17.4. Besides, in the assay with Topo II [4], the “concentration that inhibits kDNA decatenation” value turned out to be 38 µM. Also, in the assay on Topo II [5], the “protein-linked DNA breaks, cleavage site pattern” value is “induce protein-linked DNA breaks with a cleavage site pattern similar to m-AMSA”. Besides, the “formation of Topo II cleavable complex” value in the assay with Topo II [6] is recorded as “stimulate the formation of Topo II cleavable complex”. In the assay on Topo II [7], the “reversal of protein-linked DNA by heat” value was “reduced during 0.5 min exposure to 65 °C”.

Turning to `Cc1c2c(c(C)c3c[n+](C)ccc13)C1=CC(=O)C=CC1=N2` [9-oxo-NME, 9-oxo-2-methylellipticinium], the alkylation of macromolecules entry in [8] is on record as “easily alkylated by 9-oxo-NME”.

On to `Cc1c2cc[n+](C)cc2c(C)c2c1[nH]c1ccc(O)cc12` [9-OH-NME, 2-N-Methyl-9-hydroxyellipticinium], for which the anticancer activity entry in the assay with cancer is on record as “one of the most active drugs among the ellipticine analogues”. Moreover, the oxidation by peroxidases entry in the assay on peroxidases is “easily oxidized by peroxidases”.

As to `COc1c(O)c2c(c3cc(C(=O)N4CCc5c4c(O)c(OC)c4[nH]c(C(=O)N6CC7CC78C6=CC(=O)c6[nH]cc(C)c68)cc54)[nH]c13)CCN2C(N)=O` (centres unmarked) [CC1065], the “DNA binding / alkylation” value in the assay with DNA is “binds to the minor groove of DNA by nonintercalative means and then slowly alkylates the amino group of adenine”.

As to `O=C1c2cccc(O)c2C(=O)c2c(O)cc(CN(CCCl)CCCl)cc21` [XIa-3, 3-(bis[2-chloroethyl]amino)methyl-1,8-dihydroxy-9,10-anthraquinone], the “ID50” value in [1] turned out to be 0.058 µg/mL (≈ 0.147 µM). In addition, the pIC50 in assay [1] is 6.89; in assay [2], 6.74; in assay [3] it was 4.16; in the assay on leukemic cells, 6.85. For the same compound, the B/A in assay [3] is reported as 383. Also, the “cure of mice inoculated with Cisplatin resistant leukemia L1210/Cisplatin” value with leukemia L1210/Cisplatin (100 mg/kg/day×5 (ip)) was “cured”. Moreover, the “potency against mouse leukemia L1210 made resistant to Cisplatin” value in the assay with leukemia L1210/Cisplatin (mouse, in vivo) was “extremely potent”. The “concentration that inhibits kDNA decatenation” value in the assay on Topo II [4] turned out to be 48 µM. In the assay on Topo II [5], the “protein-linked DNA breaks, cleavage site pattern” value was “induce protein-linked DNA breaks with a cleavage site pattern similar to m-AMSA”. Besides, in the assay on Topo II [6], the “formation of Topo II cleavable complex” value is given as “stimulate the formation of Topo II cleavable complex”. Also, the “reversal of protein-linked DNA by heat” value with Topo II [7] is on record as “cannot be reversed up to 15 min”.
